Source: patent US20150080466A1, “DIPHENYL UREA DERIVATIVES AS FORMYL PEPTIDE RECEPTOR MODULATORS” (Allergan, Inc., priority 2013, published 2015)

Target: T1, FPR2 (Homo sapiens, UniProt P25090)
T1 construct: expressed in transfected cells
T1 sequence (P25090 1-351): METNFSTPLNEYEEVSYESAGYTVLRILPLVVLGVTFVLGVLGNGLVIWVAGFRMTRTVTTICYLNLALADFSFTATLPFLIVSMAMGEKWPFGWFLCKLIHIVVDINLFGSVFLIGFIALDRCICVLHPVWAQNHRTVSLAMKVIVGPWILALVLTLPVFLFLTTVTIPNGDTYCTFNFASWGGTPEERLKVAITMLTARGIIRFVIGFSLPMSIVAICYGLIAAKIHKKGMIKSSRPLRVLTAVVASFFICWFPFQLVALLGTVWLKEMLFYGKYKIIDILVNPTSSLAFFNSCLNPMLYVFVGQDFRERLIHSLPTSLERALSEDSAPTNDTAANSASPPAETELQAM
Experiment: Compound-induced calcium activity on FLIPR Tetra in CHO-Gα16 cells stably expressing FPRL1
Type: cell-based
Conditions: for FPR2 Ga16-CHO (Rel. eff.): relative efficacy; for EC50: tested at 0.61 to 10,000 nM, read-out: FPR2 Ga16-CHO EC50
Procedure: CHO-Gα16 cells stably expressing FPRL1 were cultured in (F12, 10% FBS, 1% PSA, 400 μg/ml geneticin and 50 μg/ml hygromycin) and HEK-Gqi5 cells stable expressing FPR1 were cultured in (DMEM high glucose, 10% FBS, 1% PSA, 400 μg/ml geneticin and 50 μg/ml hygromycin). In general, the day before the experiment, 18,000 cells/well were plated in a 384-well clear bottom poly-d-lysine coated plate. The following day the screening compound-induced calcium activity was assayed on the FLIPR^Tetra. The drug plates were prepared in 384-well microplates using the EP3 and the MultiPROBE robotic liquid handling systems. Compounds were tested at concentrations ranging from 0.61 to 10,000 nM. Results are expressed as EC50 (nM) and efficacy values.

Compound	FPR2 Ga16-CHO (Rel. eff.)	EC50 [nM]
O=C(O)CCc1ccccc1NC(=O)Nc1ccc(Br)cc1 [Compound 1, 3-(2-{[(4-Bromophenyl)carbamoyl]amino}phenyl)propanoic Acid]	(1.00)	1230
O=C(O)CCCNC(=O)CCc1ccccc1NC(=O)Nc1ccc(Br)cc1 [Compound 4, 4-{[3-(2-{[(4-Bromophenyl)carbamoyl]amino}phenyl)propanoyl]amino}butanoic Acid]	(0.99)	2040
COC(=O)CCCNC(=O)CCc1ccccc1NC(=O)Nc1ccc(Br)cc1 [Compound 2, Methyl 4-{[3-(2-{[(4-Bromophenyl)carbamoyl]amino}phenyl)propanoyl]amino}butanoate]	(0.96)	922
O=C(O)CCNC(=O)CCc1ccccc1NC(=O)Nc1ccc(Br)cc1 [Compound 5, 3-{[3-(2-{[(4-Bromophenyl)carbamoyl]amino}phenyl)propanoyl]amino}propanoic acid]	(1.00)	637
COC(=O)CCNC(=O)CCc1ccccc1NC(=O)Nc1ccc(Br)cc1 [Compound 3, Methyl3-{[3-(2-{[(4-bromophenyl)carbamoyl]amino}phenyl)propanoyl]amino}propanoate]	(1.00)	311

Results, then the compound that gave them:

FPR2 Ga16-CHO (Rel. eff.)	EC50 [nM]	Compound
(0.76)	410	O=C(O)CNC(=O)CCc1ccccc1NC(=O)Nc1ccc(Br)cc1 [Compound 7, {[3-(2-{[(4-Bromophenyl)carbamoyl]amino}phenyl)propanoyl]amino}acetic acid]
(0.80)	180	COC(=O)CNC(=O)CCc1ccccc1NC(=O)Nc1ccc(Br)cc1 [Compound 6, Methyl {[3-(2-{[(4-bromophenyl)carbamoyl]amino}phenyl)propanoyl]amino}acetate]
